For the data set, the system named is BJ1 (normal skin fibroblast). As for the experimental part:
Using specific human cancer cell lines, the anti-proliferative effectiveness of compounds 7a–j was evaluated in an in vitro assay. The anti-cancer activity of these compounds (7a–j) on various cancer cell lines, including PC3 (Prostate cell line), A549 (Lung carcinoma), PACA2 (Pancreatic cancer cell line) and BJ1 (normal skin fibroblast), was investigated in this study using the 3-(4,5-dimethylthiazol-2-yl)-2,5-diphenyltetrazolium bromide (MTT) test.
In the initial screening trial, a single dosage concentration of 100 μg ml^−1 was applied for 48 hours. The cytotoxicity of the treated cells was determined by calculating the cell death percentage (% mortality) as a percentage of untreated cells (Table 2).
Cell viability was tested using the MTT assay, 3-(4,5-dimethylthiazol-2-yl)-2,5-diphenyl-tetrazolium bromide (Bio Basic Canada Inc. Toronto, Canada).[26] Under class II biosafety regulations, the procedures were carried out in a sterile laminar air flow cabinet (Baker, SG403INT; Sanford, ME, USA). Cell lines were obtained from the American type culture collection (ATCC) as a gift from Dr Stig Linder, Karonisca Institute, Sweden. All incubations were performed at 37 °C in a 5% CO2 incubator with a 95% humidified environment (Sheldon, TC2323; Cornelius, OR, USA). 96-well micro titer polypropylene plates were seeded with cells at a density of 10^4 cells per well in complete DMEM media, and the cells were allowed to adhere for 24 hours. After the media was aspirated, the tested compounds were added to the cells in a single dose of 100 μg ml^−1 in DMSO. Each well received 40 μl of MTT salt ([…]) following a 48 hour incubation period. 200 μl of 10% sodium dodecyl sulfate (SDS) was added to each well after the reaction ended, and any formazan crystals that could have been produced were dissolved by two hours of incubator heating to 37 °C. The amount of formazan product was measured at 595 nm using a microplate reader (Bio-Rad Laboratories, model 3350, California, USA) with a reference wavelength of 690 nm, serving as a backdrop. Rather than the drugs under investigation, the medium was applied to the untreated cells (negative control). The examined compounds were dissolved in dimethylsulfoxide (DMSO), and the final concentration in the cells was less than 0.2%. For each compound and the control, the solvent concentration was the same.

Values joined by “and” are separate entries in the source; they are usually repeats but may differ in a detail not shown here. Equal values may be shown once. Read-outs that look alike come from different tables or passages of the source.

On to `Cc1nn2c(C)nn(-c3ccc([N+](=O)[O-])cc3)c2nc1=O` [Compound 7a, 3,6-Dimethyl-1-(4-nitrophenyl)-[1,2,4]triazolo[4,3-b][1,2,4]triazin-7(1H)-one], for which, where the note is “100 μg ml^−1, 48 hours, MTT”, the “(%) Mortality BJ1 (cytotoxicity percentage on normal cells)” value is 3.5% and 3.5 ± 1.16%.

Regarding `COc1ccc(-c2nn(-c3ccccc3)c3nc(=O)c(C)nn23)cc1` [Compound 7g, 3-(4-Methoxyphenyl)-6-methyl-1-phenyl-[1,2,4]triazolo[4,3-b][1,2,4]triazin-7(1H)-one], under “100 μg ml^−1, 48 hours, MTT”, the “(%) Mortality BJ1 (cytotoxicity percentage on normal cells)” value is 2.8% and 2.8 ± 0.71%.

For the compound `COc1cccc2c1C(=O)c1c(O)c3c(c(O)c1C2=O)C[C@@](O)(C(=O)CO)C[C@@H]3O[C@H]1C[C@H](N)[C@H](O)[C@H](C)O1` [Dox, Doxorubicin, reference compound], the “(%) Mortality BJ1 (cytotoxicity percentage on normal cells)” value (human, 48 h, 100 μg ml^−1) turned out to be 1.10 ± 0.52%.

The record behind these values is PMC11862990, “Utility of 6-aza-2-thiothymine in the synthesis of novel [1,2,4]triazolo[4,3-b][1,2,4]triazin-7-one derivatives: synthesis, structure elucidation, molecular docking and in vitro anti-lung cancer activity” (RSC Advances, 2025).
